Here are results for one compound from patent US12532882B2, “Biocide composition and methods of use” (priority 2017, dated 2026).

One series concerns clubroot spores. Put plainly: Clubroot resting spore mortality by Evans blue staining (Example 2). The following applies: positive control, 2% concentration.
Series [1] deals with clubroot resting spores. Put plainly: Clubroot resting spore mortality by Evans blue staining, separate test with AES-100. The settings on record: all concentrations above 1.5%.
The test system of series [2] is clubroot resting spores. Put plainly: Clubroot resting spore mortality by Evans blue staining (Example 5). The settings on record: all concentrations above 1.5%.
In a further series the test system is seeds. The experiment in a line: Seed germination in soils saturated with product. The following applies: soils saturated with 2% solution.

The compound `OCl` [sodium hypochlorite] showed a resting spore mortality in the series on clubroot spores of 100%. Moreover, the “mortality of clubroot resting spores” value with clubroot resting spores [1] and with clubroot resting spores [2] was 100% each time. Besides, the seed germination result in the series with seeds is “no seeds germinated”.
